Reference: ChEMBL document CHEMBL3507680, “University of Dundee, Gates Library screen for HepG2 cell viability”

Test: Human HepG2 cell viability assay in 384 well format
Assay type: toxicity, cell-based
Design: dose 125 nL, time 70.5 hour; concentration not given beside the values
Details: HepG2 cells, read-out: Inhibition

Row | SMILES | cytotoxicity at 70.5 h
1 | Cc1nc(C2CCCN2C(=O)COCc2ccccc2)no1 (stereo not drawn) | -10.2%
2 | Cc1nn(C)c(Cl)c1C1CCCN1C(=O)c1ccc[nH]1 (stereo not drawn) | 9.9%
3 | N#Cc1cccc(NS(=O)(=O)c2ccc(C(=O)O)cc2F)c1 | -13.8%
4 | Cc1cc(NS(=O)(=O)c2ccc(C(=O)O)cc2F)ccc1F | -10.7%
5 | CN(CC(=O)N1CCCC1c1noc(C2CC2)n1)Cc1ccccc1 (stereo not drawn) | -7.61%
6 | CCn1nc2c(cc1=O)CN(CCCN1CCCC1=O)CC2 | 16.8%
7 | Cc1nccc(C(=O)NC(COCC(C)C)c2ccco2)n1 (stereo not drawn) | 19.4%
8 | CCc1nccn1C1CCCN(C(=O)c2cnn3cccnc23)C1 (stereo not drawn) | 27.7%
9 | O=C(COc1ccc(C(F)(F)F)cc1)N1CCOCC1c1ncon1 (stereo not drawn) | -6%
10 | Cc1cc(C)n(CC2CCCN2C(=O)Cc2c(C)nn(C)c2C)n1 (stereo not drawn) | -0.624%
11 | O=C(COc1ccc(Cl)cc1)N1CCOCC1c1ncon1 (stereo not drawn) | -1.69%
12 | O=C(COc1cccc(Cl)c1)N1CCOCC1c1ncon1 (stereo not drawn) | 13.9%
13 | Cc1ccc(NC(=O)N(C)Cc2cnn(C)c2)c(C)c1 | -10.1%
14 | CC(C(=O)NCc1ccc(N2CCCCCC2)nc1)S(C)(=O)=O (stereo not drawn) | -9.13%
15 | CS(=O)(=O)c1ccc(CNc2nccc(C(F)(F)F)n2)cc1 | -1.16%
16 | O=C(CCNc1ncccn1)N1CCN(c2nccs2)CC1 | -16.3%
17 | CC(C)C(NC(N)=O)C(=O)NCc1ccc(N2CCCC2)nc1 (stereo not drawn) | -9.75%
18 | O=C(NCCNc1ncccn1)C1CC(=O)N(Cc2ccco2)C1 (stereo not drawn) | -4.28%
19 | CN(Cc1nnc2n1CCC2)C(=O)c1ccc2c(c1)OCO2 | -11.9%
20 | Cc1ccc(NC(=O)NCCCn2nc3ccccn3c2=O)cc1 | -0.527%
21 | Cc1cccc(NC(=O)Cn2nc3ccccn3c2=O)c1C | -10.3%
22 | O=C(NCCCn1nc2ccccn2c1=O)Nc1ccccc1 | 16.7%
23 | CN(Cc1nnc2n1CCC2)C(=O)c1ccc2c(c1)CCO2 | -3.65%
24 | O=C(NCCCn1nc2ccccn2c1=O)NCc1ccccc1 | -0.996%

Row | SMILES | cytotoxicity at 70.5 h
25 | Cc1csc(N2CCCN(C(=O)CCNc3ncccn3)CC2)n1 | -0.695%
26 | CCCS(=O)(=O)NC(C)C(=O)NCc1ccc(N2CCN(C)CC2)nc1 (stereo not drawn) | -2.17%
27 | Cc1ccn2ncc(C(=O)N3CCCC(n4cccn4)C3)c2n1 (stereo not drawn) | -0.891%
28 | COCCOc1cc(C)ccc1NC(=O)N(C)Cc1cnn(C)c1 | -13.2%
29 | COc1ccccc1CC(=O)N1CCCC1Cn1nc(C)cc1C (stereo not drawn) | -2.44%
30 | CC(C)C(=O)NCc1ccc(N2CCCC2)nc1 | -3.37%
31 | Cc1cccc(C)c1OCC(=O)N1CCOCC1c1ncon1 (stereo not drawn) | -2.55%
32 | Cc1ccc(OCCC(=O)N2CCOCC2c2ncon2)cc1C (stereo not drawn) | -7.26%
33 | CC(C)c1nc(CN2CCCC(Cn3cncn3)C2)cs1 (stereo not drawn) | 29.1%
34 | Cn1cc(C2CCCN2CCC(=O)N2CCc3sccc3C2)cn1 (stereo not drawn) | -4.52%
35 | C1CCCN(CC2CCCN(Cc3noc(C4CC4)n3)C2)CC1 (stereo not drawn) | 0.15%
36 | C1CCCN(C2CCCN(Cc3noc(C4CC4)n3)C2)CC1 (stereo not drawn) | -1.66%
37 | O=C(CCN1CCCC1c1cccc(F)c1)N1CCc2sccc2C1 (stereo not drawn) | 0.336%
38 | Cc1ccccc1OCC(=O)N1CCN(C2CCOC2=O)CC1 (stereo not drawn) | 0.726%
39 | CCn1nc2c(cc1=O)CN(Cc1coc(-c3ccccc3)n1)CC2 | -3.27%
40 | COCCOc1ncccc1C(=O)N1CCCCC1c1nccs1 (stereo not drawn) | -3.02%
41 | COCCOc1cccc(C(=O)N2CCCCC2c2nccs2)c1 (stereo not drawn) | -3.68%
42 | O=C(NCCNc1ncccn1)N1CCCC1 | -0.644%
43 | O=C1OCCC1N1CCN(C(=O)Cc2ccccc2Cl)CC1 (stereo not drawn) | -0.257%
44 | O=C(NCCOCC(F)(F)F)c1ccc(-c2ccccc2)[nH]c1=O | -7.3%
45 | Cc1cc(C2CCCN2CCC(=O)N2CCc3sccc3C2)no1 (stereo not drawn) | 1.59%
46 | COCc1ccc(CNCc2c(C)nn(C)c2N(C)C)cc1 | 24.1%
47 | Cn1nc2c(cc1=O)CN(Cc1coc(-c3ccccc3)n1)CC2 | 0.822%
48 | Cc1csc(C2CCCCN2C(=O)c2cc(Cl)c[nH]2)n1 (stereo not drawn) | -0.326%

Row | SMILES | cytotoxicity at 70.5 h
49 | CC(C)(C)OC(=O)NCCNC(=O)c1ccc(-c2ccco2)[nH]c1=O | -0.98%
50 | O=C(c1ccc2c(c1)OCCCO2)N1CCCC(n2cccn2)C1 (stereo not drawn) | 0.26%
51 | CCc1nc2n(n1)CC(NCc1nnc(C(C)C)o1)CC2 (stereo not drawn) | 19.3%
52 | CC(NC(=O)CCOc1cccc(F)c1)c1nnc2n1CCC2 (stereo not drawn) | -2.58%
53 | CC(NC(=O)Nc1cccnc1N1CCCC1)c1ccncc1 (stereo not drawn) | 0.728%
54 | N#Cc1cccc(CNC(=O)Nc2cccnc2N2CCCC2)c1 | -1.72%
55 | COc1ncccc1CNC(=O)Nc1cccnc1N1CCCC1 | 5.6%
56 | O=C(NCc1cccnc1-n1cncn1)c1ccc2c(c1)CCO2 | -1.03%
57 | CCc1nc(CC(=O)N2CCCC2CN2CCCC2)cs1 (stereo not drawn) | -1.93%
58 | CCc1nnc(CN2CCCC(c3cc(C(F)(F)F)[nH]n3)C2)o1 (stereo not drawn) | 0.217%
59 | COc1ccccc1-c1noc(CN2CCCC2Cn2cccn2)n1 (stereo not drawn) | 12.5%
60 | CCc1noc(C(C)N2CCNCC2)n1 (stereo not drawn) | 0.0476%
61 | c1cnn(CC2CCCN2Cc2nc(-c3ccoc3)no2)c1 (stereo not drawn) | 28.2%
62 | O=C(CN1CCCC(Cn2cncn2)C1)NCCOc1ccccc1 (stereo not drawn) | -2.13%
63 | COc1ccc(CC(=O)N2CCCC(n3cc(C)cn3)C2)cc1F (stereo not drawn) | -2.2%
64 | Cc1cc(OCC(=O)N2CCCC(c3noc(C)n3)C2)no1 (stereo not drawn) | -5.48%
65 | Cc1ccc(-c2nc(CN3CCCC3Cn3cc(C)cn3)no2)cc1 (stereo not drawn) | 23.6%
66 | CN(C)CC1CN(Cc2coc(-c3cccs3)n2)CCO1 (stereo not drawn) | 1.06%
67 | CC(Cn1cccn1)NC(=O)NCc1cccnc1OC1CCCC1 (stereo not drawn) | -12.8%
68 | CC(Cn1cccn1)NC(=O)Cc1cccs1 (stereo not drawn) | -6.09%
69 | CC(NC(=O)N1CCN(CCc2ccccc2)CC1)c1nncn1C (stereo not drawn) | -11%
70 | COc1cc(C(=O)N2CCCS2(=O)=O)cc(Cl)c1OC | -9.28%
71 | COc1cc(C(=O)N2CCCS2(=O)=O)ccc1C | 18.4%
72 | CC(NC(=O)N1CCC(OCc2ccccc2)CC1)c1nncn1C (stereo not drawn) | -11.3%

Row | SMILES | cytotoxicity at 70.5 h
73 | CCn1cnnc1CNC(=O)N1CCC(C(=O)NC)CC1 | 1.9%
74 | CC(NC(=O)c1cc(Br)c2c(c1)OCCO2)C(N)=O (stereo not drawn) | 16.6%
75 | Cc1ccc(C(O)CNCCn2cccn2)cc1C (stereo not drawn) | -3.19%
76 | CNc1snc(C)c1C(=O)N1CCCC(n2nc(C)cc2C)C1 (stereo not drawn) | 23.1%
77 | CC(C)c1nc(C2CCCN2CC(=O)Nc2ccc(Cl)cn2)no1 (stereo not drawn) | 19.2%
78 | COc1cccc(CNc2cnn(C)c(=O)c2Cl)c1 | 3.02%
79 | O=C(c1cc(Cl)c2c(c1)OCO2)N1CCCC(n2ccnc2)C1 (stereo not drawn) | -8.93%
80 | CCc1noc(C(C)N2CCN(Cc3nnc(C4CC4)o3)CC2)n1 (stereo not drawn) | -14.9%
81 | Cc1nc(C)n(CC2CN(CCOCC(F)(F)F)CCO2)n1 (stereo not drawn) | -17.5%
82 | Cc1cc(NC(=O)CN2CCCC2c2noc(C(C)C)n2)n(C)n1 (stereo not drawn) | -7.61%
83 | c1ccc(-c2nc(CN3CCCC(Cn4cncn4)C3)co2)cc1 (stereo not drawn) | 17.2%
84 | Cc1cnn(CCNCc2ccccc2Oc2cccnc2)c1 | 28.3%
85 | Cc1cc(NC(=O)NCc2cccnc2OC(C)C)n(C)n1 | -6.35%
86 | CCN(Cc1nc2c(cnn2C)c(=O)[nH]1)c1ccc(OC)c(OC)c1 | -7.15%
87 | Cc1nc(CNC(C)c2ccc(OCC(=O)NC3CC3)cc2)cs1 (stereo not drawn) | 3.83%
88 | CC(NCc1ccc(F)cc1)c1ccc(OCC(=O)NC2CC2)cc1 (stereo not drawn) | 25.6%
89 | COc1ccc(CN(C)Cc2nc3c(cnn3C)c(=O)[nH]2)cc1OC | -6.1%
90 | Cc1cc(NC(=O)NCc2ccccn2)n(C)n1 | -6.19%
91 | CC(Cc1c(F)cccc1F)NC(=O)Nc1cnn(CC(N)=O)c1 (stereo not drawn) | -3.56%
92 | O=C(Cc1ccccc1)N1CCN(Cc2noc(C3CC3)n2)CC1 | -1.85%
93 | Cc1nnc2n1CCN(C(=O)COCCOc1ccccc1)C2 | -1.96%
94 | Cc1cnn(CC(C)NCc2ccc(OCc3ccncc3)cc2)c1 (stereo not drawn) | 30.2%
95 | CCN1CCC(NC(=O)CN2CCCC2Cn2cncn2)CC1 (stereo not drawn) | -2.95%
96 | Cc1cnn(CC2CCCCN2CC(=O)Nc2c(C)n[nH]c2C)c1 (stereo not drawn) | -5.21%

Row | SMILES | cytotoxicity at 70.5 h
97 | COc1ccc(C(=O)N2CCC(Nc3ccc(C)nn3)CC2)c(F)c1 | -6.97%
98 | c1ccc(-n2cc(CN3CCCC(Cn4cncn4)C3)nn2)cc1 (stereo not drawn) | -7.1%
99 | Cc1cc(C(=O)N2CCc3nnc(N)cc3C2)c(C)n1C1CC1 | -12.1%
100 | O=C(O)c1cc(S(=O)(=O)Nc2ccc(Cl)cc2)cc2c1OCCO2 | -10.1%
101 | Cc1nc(C)n(CC2CN(c3ncnc4[nH]ccc34)CCO2)n1 (stereo not drawn) | 1.75%
102 | Cc1ncccc1CNCC1CCN(CC(O)c2ccccc2)CC1 (stereo not drawn) | -1.3%
103 | Cc1nc(C2CCCN(C(=O)c3ccco3)C2)no1 (stereo not drawn) | 24%
104 | Cc1cc(C(=O)N2CCc3nnc(N(C)C)cc3C2)c(C)n1C1CC1 | -3.63%
105 | CC(C)(C)OC(=O)N1CCN(C(=O)c2sccc2C2CC2)CC1 | -10%
106 | CSc1ccsc1C(=O)N1CCN(CC(C)(C)O)CC1 | -0.902%
107 | Cc1cnn(CC(C)NCc2csc(-c3cnn(C)c3)n2)c1 (stereo not drawn) | 51.9%
108 | COC(=O)C(c1cc(F)ccc1F)N(C)C(=O)c1csnn1 (stereo not drawn) | 7.84%
109 | COC(=O)N1CCCN(C(=O)NCc2ccc(Cl)s2)CC1 | 10.1%
110 | CCn1cnnc1CNC(=O)c1cc(Cl)ccc1OC | -4.87%
111 | CCc1cccc(N2CCC(NC(=O)c3ccc(=O)[nH]n3)CC2)c1 | -0.843%
112 | COCc1nc(C(=O)N2CCCC2c2ccccc2C)cs1 (stereo not drawn) | -1.48%
113 | Cc1ccoc1C(=O)NC1CCN(Cc2cccc3c2OCCO3)CC1 | 6.48%
114 | COc1ccc(Br)c(C(=O)N2CCC(c3n[nH]c(C4CC4)n3)CC2)c1 | 3.76%
115 | O=C(CCCNc1ncccn1)N1CCCC(n2cccn2)C1 (stereo not drawn) | 34.1%
116 | COCCN1CCC(CNC(=O)C2(c3cccc(C)c3)CC2)CC1 | -4.42%
117 | CCC(=O)NC1CCN(c2cccc(CC)c2)CC1 | 38.9%
118 | COc1ccc(CCNCc2c(C)nn(C)c2N(C)C)cc1OC | -1.22%
